Data on 42 compounds can be found in patent publication US6211244A, “Calcium receptor-active compounds” (priority 1995, dated 2001).

The assay deals with T1, human calcium receptor (Homo sapiens, UniProt P41180, R990G).
T1 construct: expressed in transfected cells; host or cells: HEK 293
T1 sequence (P41180 20-1078 R990G): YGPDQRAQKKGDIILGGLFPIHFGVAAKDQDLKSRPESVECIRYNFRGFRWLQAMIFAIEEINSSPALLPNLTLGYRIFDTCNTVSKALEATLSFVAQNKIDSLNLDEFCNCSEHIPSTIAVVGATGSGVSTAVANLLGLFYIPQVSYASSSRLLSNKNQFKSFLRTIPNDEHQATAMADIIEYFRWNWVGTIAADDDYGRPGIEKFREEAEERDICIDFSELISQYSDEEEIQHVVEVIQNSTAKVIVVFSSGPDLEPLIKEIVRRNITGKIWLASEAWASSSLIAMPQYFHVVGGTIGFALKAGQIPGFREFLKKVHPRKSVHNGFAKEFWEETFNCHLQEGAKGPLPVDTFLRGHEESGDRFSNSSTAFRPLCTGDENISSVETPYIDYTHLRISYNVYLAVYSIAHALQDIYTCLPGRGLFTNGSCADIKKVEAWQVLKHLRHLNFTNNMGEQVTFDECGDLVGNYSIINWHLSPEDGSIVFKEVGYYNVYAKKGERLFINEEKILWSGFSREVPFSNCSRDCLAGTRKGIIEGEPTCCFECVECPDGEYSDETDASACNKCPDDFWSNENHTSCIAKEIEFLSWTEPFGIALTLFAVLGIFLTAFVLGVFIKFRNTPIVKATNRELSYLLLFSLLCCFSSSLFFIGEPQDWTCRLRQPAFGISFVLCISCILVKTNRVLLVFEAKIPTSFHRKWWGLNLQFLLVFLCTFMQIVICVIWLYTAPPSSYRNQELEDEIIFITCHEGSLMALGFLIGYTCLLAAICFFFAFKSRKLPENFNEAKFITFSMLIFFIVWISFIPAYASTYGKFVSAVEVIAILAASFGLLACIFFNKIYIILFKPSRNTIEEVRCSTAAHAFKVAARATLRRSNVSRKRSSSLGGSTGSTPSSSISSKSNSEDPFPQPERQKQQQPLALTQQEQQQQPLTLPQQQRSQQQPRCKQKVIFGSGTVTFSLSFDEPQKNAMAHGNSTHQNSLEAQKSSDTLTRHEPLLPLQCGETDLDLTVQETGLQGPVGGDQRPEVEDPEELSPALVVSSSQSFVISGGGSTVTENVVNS
Put plainly: increases in [Ca^2+ ]i in HEK-293 cells expressing the human calcium receptor (fura-2 loaded HEK 293/pHuPCaR4.0 cells), % activity. The conditions noted are these: for activity at […]: HEK293. The format is cell-based.

In the case of `COc1ccc(CNC(C)c2ccc(OC)c3ccccc23)cc1C` (centres unmarked) [Compound 18C], the “% activity” value reads like this: (33 ng/mL) 60%; (330 ng/mL) 87%; (3300 ng/mL) 99%.
In the same order, the values of `COc1ccc(CNC(C)c2cccc(-c3ccccc3)c2)cc1C` (centres unmarked) [Compound 18T] are 52%, 74% and 99%.
Consider `C[C@@H](NCCCc1ccccc1Cl)c1cccc(OCC(F)(F)F)c1` [Compound 20Y], for which the “% activity” value runs as follows: (33 ng/mL) 74%; (330 ng/mL) 95%; (3300 ng/mL) 117%.
In the case of `COc1cccc([C@@H](C)NC(C)CCc2ccccc2Cl)c1` (some centres unmarked) [Compound 21C = 4U], the “% activity” value (330 ng/mL, listed as 4U) turned out to be 72%.
For the compound `COc1cccc([C@@H](C)N[C@@H](C)CCc2ccccc2)c1` [Compound 21E, (S,R)-N-(4-pbenyl-2-butyl)-1-(3-methoxyphenyl)ethylamine], the “% activity” value by setting is: (33 ng/mL) 64%; (330 ng/mL) 94%.
For the compound `COc1cccc([C@@H](C)NCCCc2cccc(OC(F)(F)F)c2)c1` [Compound 21M], the “% activity” value came out at 58% (33 ng/mL) and 102% (330 ng/mL).
Regarding `COc1cccc([C@@H](C)NCCCc2ccc(OC(F)(F)F)cc2)c1` [Compound 21N], the “% activity” value (33 ng/mL) is recorded as 42%, the “% activity” value (330 ng/mL) came out at 98% and the “% activity” value (3300 ng/mL) is recorded as 124%.
Regarding `COc1cccc([C@@H](C)NCCCc2ccccc2C(F)(F)F)c1` [Compound 21O], the “% activity” value (33 ng/mL) worked out at 75% and the “% activity” value (330 ng/mL) was determined as 109%.
In the same order, the values of `COc1cccc([C@@H](C)NCCCc2cccc(C(F)(F)F)c2)c1` [Compound 21P] are 56% and 92%.
For the compound `COc1cccc([C@@H](C)NCCCc2ccccc2F)c1` [Compound 21R], the “% activity” value is recorded as 66% (33 ng/mL) and 100% (330 ng/mL).
Take `CCCOc1cccc([C@@H](C)NCCCc2ccccc2Cl)c1` [Compound 21S]: the “% activity” value by setting is: (33 ng/mL) 85%; (330 ng/mL) 131%; (3300 ng/mL) 132%.
Taken in the same sequence, the figures for `CC(C)Oc1cccc([C@@H](C)NCCCc2ccccc2Cl)c1` [Compound 21T] were 53%, 112% and 133%.
For the compound `C[C@@H](NCCCc1ccccc1Cl)c1cccc(OCC(F)F)c1` [Compound 21V], the “% activity” value reads like this: (33 ng/mL) 99%; (330 ng/mL) 116%; (3300 ng/mL) 122%.
In the same order, the values of `COc1cccc([C@@H](C)N[C@@H](C)CCc2cccc(C(F)(F)F)c2)c1` [Compound 21X] are 51%, 101% and 119%.
Take `COc1cccc([C@@H](C)N[C@H](C)CCc2cccc(C(F)(F)F)c2)c1` [Compound 21Y, (R,R)-N-[4-(3-trifluoromethylphenyl)-2-butyl]-1-(3-methoxyphenyl)ethylamine]: the “% activity” value reads like this: (33 ng/mL) 68%; (330 ng/mL) 100%.
Taken in the same sequence, the figures for `C[C@@H](NCCCc1cccc(C(F)(F)F)c1)c1cccc2ccccc12` [Compound 22J] were 71% and 99%.
On to `C[C@H](CCc1cccc(OC(F)(F)F)c1)N[C@@H](C)c1cccc2ccccc12` [Compound 22X, (S,R)-N-[4-(3-trifluoromethoxyphenyl)-2-butyl]-1-(1-naphthyl)ethylamine], for which the activity at […] is 48% (33 ng/mL) and 86% (330 ng/mL).
In the same order, the values of `C[C@H](CCc1cccc(OC(F)(F)F)c1)N[C@H](C)c1cccc2ccccc12` [Compound 22Y, (R,R)-N-[4-(3-trifluoromethoxyphenyl)-2-butyl]-1-(1-naphthyl)ethylamine] are 64% and 114%.
As to `COc1cccc([C@@H](C)N[C@H](C)CCc2cccc(OC(F)(F)F)c2)c1` [Compound 23A, (R,R)-N-[4-(3-trifluoromethoxyphenyl)-2-butyl]-1-(3-methoxyphenyl)ethylamine], the “% activity” value (33 ng/mL) came to 67% and the “% activity” value (330 ng/mL) stood at 103%.
Consider `Cc1ccc(CNCc2cccc3c(Br)cccc23)cc1C` [Compound 23D], for which the “% activity” value runs as follows: (33 ng/mL) 35%; (330 ng/mL) 66%; (3300 ng/mL) 91%.
Taken in the same sequence, the figures for `C[C@@H](NCc1cccc(OC(F)(F)F)c1)c1cccc2ccccc12` [Compound 23E] were 102%, 113% and 137%.
`C[C@@H](NCc1ccc(OC(F)(F)F)cc1)c1cccc2ccccc12` [Compound 23F]: the “% activity” value reads like this: (33 ng/mL) 45%; (330 ng/mL) 82%.
For the compound `COc1ccc(CNC(C)c2ccccc2)cc1C` (centres unmarked) [Compound 23G], the “% activity” value (33 ng/mL) worked out at 67%, the “% activity” value (330 ng/mL) was 93% and the “% activity” value (3300 ng/mL) is given as 127%.
`COc1ccc(CNC(C)c2ccccc2OC)cc1C` (centres unmarked) [Compound 23H]: the activity at […] runs as follows: (33 ng/mL) 77%; (330 ng/mL) 114%.
`COc1cccc(C(C)NCc2ccc(OC)c(C)c2)c1` (centres unmarked) [Compound 23I]: the “% activity” value reads like this: (33 ng/mL) 58%; (330 ng/mL) 102%.
With `COc1ccc(CNC(C)c2ccccc2F)cc1C` (centres unmarked) [Compound 23J], the “% activity” value reads like this: (33 ng/mL) 51%; (330 ng/mL) 61%; (3300 ng/mL) 102%.
Taken in the same sequence, the figures for `COc1ccc(CNC(C)c2cccc(F)c2)cc1C` (centres unmarked) [Compound 23K] were 72%, 107% and 106%.
Taken in the same sequence, the figures for `COc1ccc(CNC(C)c2ccc(F)cc2)cc1C` (centres unmarked) [Compound 23L] were 37%, 77% and 107%.
In the case of `COc1ccc(CNC(C)c2ccccc2Cl)cc1C` (centres unmarked) [Compound 23M], the “% activity” value is on record as 74% (33 ng/mL), 97% (330 ng/mL) and 113% (3300 ng/mL).
Regarding `COc1ccc(CNC(C)c2cccc(Cl)c2)cc1C` (centres unmarked) [Compound 23N], the “% activity” value reads like this: (33 ng/mL) 50%; (330 ng/mL) 96%.
On to `COc1ccc(CNC(C)c2ccc(Cl)cc2)cc1C` (centres unmarked) [Compound 23O], for which the “% activity” value is given as 46% (33 ng/mL), 79% (330 ng/mL) and 111% (3300 ng/mL).
In the same order, the values of `COc1ccc(CNC(C)c2ccccc2Br)cc1C` (centres unmarked) [Compound 23P] are 70%, 99% and 125%.
In the same order, the values of `COc1ccc(CNC(C)c2cccc(Br)c2)cc1C` (centres unmarked) [Compound 23Q] are 98%, 114% and 122%.
In the same order, the values of `COc1ccc(CNC(C)c2ccc(Br)cc2)cc1C` (centres unmarked) [Compound 23R] are 54%, 86% and 104%.
With `COc1ccc(CNC(C)c2cccc(I)c2)cc1C` (centres unmarked) [Compound 23S], the “% activity” value by setting is: (33 ng/mL) 53%; (330 ng/mL) 97%.
`COc1ccc(CNC(C)c2ccc(I)cc2)cc1C` (centres unmarked) [Compound 23T]: the “% activity” value was found to be 60% (33 ng/mL), 74% (330 ng/mL) and 102% (3300 ng/mL).
`COc1ccc(CNC(C)c2cccc(C(C)=O)c2)cc1C` (centres unmarked) [Compound 23U]: the “% activity” value reads like this: (33 ng/mL) 48%; (330 ng/mL) 87%.
`COc1ccc(CNC(C)c2ccccc2C)cc1C` (centres unmarked) [Compound 23W]: the “% activity” value runs as follows: (33 ng/mL) 81%; (330 ng/mL) 97%; (3300 ng/mL) 117%.
With `COc1ccc(CNC(C)c2cccc(C)c2)cc1C` (centres unmarked) [Compound 23X], the “% activity” value by setting is: (33 ng/mL) 49%; (330 ng/mL) 94%.
`COc1ccc(CNC(C)c2cccc(C)c2)cc1C` (centres unmarked) [Compound 23Y]: the “% activity” value came out at 61% (33 ng/mL), 87% (330 ng/mL) and 106% (3300 ng/mL).
As to `CCc1cccc(C(C)NCc2ccc(OC)c(C)c2)c1` (centres unmarked) [Compound 23Z], the “% activity” value (33 ng/mL) is on record as 100%, the “% activity” value (330 ng/mL) stood at 126% and the “% activity” value (3300 ng/mL) came to 129%.
In the same order, the values of `CCc1ccc(C(C)NCc2ccc(OC)c(C)c2)cc1` (centres unmarked) [Compound 24A] are 52%, 85% and 122%.
